Like-named read-outs stand apart in the source and are kept apart here.
Test system: NUP-MDSC
Experiment: Secondary mouse MDSC screen (dose-dependent; IFNγ secretion and T cell proliferation)
Format: cell-based
Conditions: for EC50: Mus musculus, NUP-MDSC/CD8+ T cell coculture; for activity in the NUP-MDSC assay (proliferation and INFγ secretion of mouse CD8+ T cells): dose-dependent confirmation screen
Description: Compound source plates (REMP-PP#180030) were pre-prepared by adding 500 nl compound solution (5 mmol/l starting concentration) and 11.5 μl Hepes (20 mmol/l) buffer to achieve a final ready to screen concentration of 0.2 mmol/l. Cocultured cell assay plates were prepared by dispensing 20 μl of differentiated MDSC cells (12,500 cells/cavity) and 20 μl of CD8+ T-cells with a MultidropCombi (12,500 cells/cavity). In the next step, 2 μl of pre-prepared compound solution was transferred via BC i5 to the cell plate followed by 3days incubation at 37 °C and 5% CO2. Afterward, the supernatant in cell plates were homogenized via orbital shaking at 2000 rpm for 20s and centrifugated with 1650 rpm for 30 s. On a BC i5 pipetting robot, 2 μl supernatant were transferred to a pre-filled (30 μl PBS) assay plate followed by centrifugation and addition of 8 μl IFNγ HTRF detection kit, followed by orbital mixing at 2000 rpm for 20s and an incubation step for 3 days at 37 °C and 5% CO2. Assay plate was analyzed on an PE Envision. Cell plates were centrifuged in parallel with 300g for 60 s and orbital mixed at 2000 rpm for 20 s followed by proliferation analysis via Sartorius IQue2. Effects were normalized against stimulator control mIL-2 and 0.2% dimethyl sulfoxide (DMSO) as neutral control. A hit was defined as a compound with >50% effect in at least one of the measured effects.
Compound source plates (REMP-PP#180030) for dose-dependent secondary screens were pre-prepared by adding […] compound solution (1.0E + 01 mmol/l, 3.2E + 00 mmol/l, 1.0E + 00 mmol/l, 3.2E-01 mmol/l, 1.0E-01 mmol/l, 3.2E-02 mmol/l, 1.0E-02 mmol/l, 3.2E-03 mmol/l, 1.0E-03 mmol/l, 3.2E-04 mmol/l; starting concentration) and 12 μl Hepes (20 mM) buffer to achieve a final ready to screen concentration of 4.0E-02 mmol/l, 1.3E-02 mmol/l, 4.0E-03 mmol/l, 1.3E-03 mmol/l, 4.0E-04 mmol/l, 1.3E-04 mmol/l, 4.0E-05 mmol/l, 1.3E-05 mmol/l, 4.0E-06 mmol/l, and 1.3E-06 mmol/l. All other steps are identical to the described workflow under “Primary mouse MDSC screen”.
After confirming the physiological and pharmacological suitability of the NUP-MDSC model, we developed a high-throughput screen for the identification of potential MDSC modulators (Fig. 4A and supplemental Fig. S3). To accomplish this, mouse NUP-MDSC were generated as described before, co-cultured with freshly isolated mouse CD8+ T cells, which were activated with anti-CD3/anti-CD28 antibodies, and subsequently treated with compounds or DMSO vehicle (supplemental Fig. S4A). After 72 h, T cell activity was assessed by recording T cell proliferation and IFN-γ secretion. […] Compounds were declared hits if reversing the suppression effect of NUP-MDSC on T cells with ≥50% in either readout resulting in 392 hit compounds (Fig. 4B). […]

CCOC(=O)c1nnn(-c2nn3nnnc3c3ccccc23)c1C [compound 2]
EC50 (Fig. 4D, read-out: T cell proliferation EC50): 6.5 µM | EC50 (read-out: EC50, based on INFγ secretion of secondary mouse screen): 2.6 µM | activity in the NUP-MDSC assay (proliferation and INFγ secretion of mouse CD8+ T cells): rescued the proliferation and INFγ secretion

c1ccc2c(c1)c(-n1ccnc1)nn1nnnc21 [compound 3]
activity in the NUP-MDSC assay (proliferation and INFγ secretion of mouse CD8+ T cells): inactive
